The record followed here is patent publication US20240425491A1, “HETEROARYL COMPOUNDS USEFUL IN THE TREATMENT OF COGNITIVE DISORDERS” (University College Cardiff Consultants Limited, priority 2021, published 2024).

Structures can show the parent of a compound that is named as a salt.

The target of assay [1] is T1, human α5β3γ2 GABAARs in mouse L(tk−) cells (Homo sapiens, UniProt P18507+P31644).
T1 construct: expressed in transfected cells; host or cells: mouse L(tk−) cells, dexamethasone-inducible vector pMSGneo
T1 sequence (P31644 32-462): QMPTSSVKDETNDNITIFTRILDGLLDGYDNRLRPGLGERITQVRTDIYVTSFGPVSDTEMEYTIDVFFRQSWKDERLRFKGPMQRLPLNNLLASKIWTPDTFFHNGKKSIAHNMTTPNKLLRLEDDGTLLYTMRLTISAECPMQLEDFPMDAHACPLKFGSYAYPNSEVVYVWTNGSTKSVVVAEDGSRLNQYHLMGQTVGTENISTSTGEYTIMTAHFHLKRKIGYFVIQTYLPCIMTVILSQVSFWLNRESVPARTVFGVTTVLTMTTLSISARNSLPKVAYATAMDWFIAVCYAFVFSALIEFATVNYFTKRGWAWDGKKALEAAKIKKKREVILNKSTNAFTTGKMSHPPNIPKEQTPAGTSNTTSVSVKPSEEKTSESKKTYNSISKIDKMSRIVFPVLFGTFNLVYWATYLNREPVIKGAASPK
T1 sequence (P28472 26-473 partner): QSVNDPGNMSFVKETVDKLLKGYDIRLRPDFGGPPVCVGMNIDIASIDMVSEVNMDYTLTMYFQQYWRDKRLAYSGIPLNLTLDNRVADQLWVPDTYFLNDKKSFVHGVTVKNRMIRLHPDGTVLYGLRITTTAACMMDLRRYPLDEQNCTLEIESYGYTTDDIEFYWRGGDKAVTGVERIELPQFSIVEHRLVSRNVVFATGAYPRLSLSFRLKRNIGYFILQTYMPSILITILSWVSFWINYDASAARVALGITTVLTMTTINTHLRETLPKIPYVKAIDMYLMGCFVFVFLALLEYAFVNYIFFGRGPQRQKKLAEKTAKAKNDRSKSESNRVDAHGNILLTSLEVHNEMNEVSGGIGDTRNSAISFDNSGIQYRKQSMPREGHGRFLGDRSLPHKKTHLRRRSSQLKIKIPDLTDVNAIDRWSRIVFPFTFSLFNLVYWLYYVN
T1 sequence (P18507 40-475): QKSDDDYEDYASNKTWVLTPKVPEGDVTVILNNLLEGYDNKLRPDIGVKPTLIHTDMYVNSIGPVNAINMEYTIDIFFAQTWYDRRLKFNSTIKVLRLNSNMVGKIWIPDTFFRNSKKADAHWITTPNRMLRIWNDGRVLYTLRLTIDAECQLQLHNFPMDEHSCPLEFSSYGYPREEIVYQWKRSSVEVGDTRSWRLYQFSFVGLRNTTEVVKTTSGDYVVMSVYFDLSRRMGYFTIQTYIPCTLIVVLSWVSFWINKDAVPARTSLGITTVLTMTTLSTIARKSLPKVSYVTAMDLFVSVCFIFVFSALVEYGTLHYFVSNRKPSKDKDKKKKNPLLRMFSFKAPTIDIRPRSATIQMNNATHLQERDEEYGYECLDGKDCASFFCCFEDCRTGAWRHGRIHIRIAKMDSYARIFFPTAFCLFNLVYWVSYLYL
As to the kind of experiment: In vitro electrophysiological recording assay (α5-GABAAR relative efficacy), QPatch. In kind it is cell-based. The conditions noted are these: for α5-GABAAR Relative Efficacy (to DMCM), Qpatch: Conc 1 μM, GABA EC10-20. The text has this:
(§1) Mouse L(tk^−) cells stably expressing human α1β3γ2, α2β3γ2, α3β3γ2, α5β3γ2 GABAARs generated by transfection of the individual subunits in the dexamethasone-inducible expression vector pMSGneo in mouse L(tk^−) cells (Hadingham et al., 1993, Mol. Pharmacol. 43:970-975 and 1993, Mol. Pharmacol. 44:1211-1218) were used for binding and functional assays. For certain compounds, HEK293 cells stable expressing the human α1β3γ2L, α2β3γ2L, α3β3γ2L and α5β3γ2L GABAA receptors were used to evaluate their functional effects in a SyncroPatch electrophysiology assay.
For QPatch electrophysiology testing, 1 μM dexamethasone was added to the culture medium of L(tk^−) cells 24 hours before the recordings were performed. Cells were typically used for electrophysiology experiments 72-96 hours after splitting.
The efficacy of modulators was evaluated using either the automated patch-clamp platform QPatch16 (Sophion, Copenhagen, Denmark) or the SyncroPatch 384i (Nanion Technologies, Germany). Cells were harvested from flasks by enzymatic dissociation and re-suspended in serum-free medium.
For QPatch recordings, all experiments were carried out at room temperature (20-22° C.) using a standard whole cell procedure and physiological solutions. Gigaseals were formed upon execution of a combined suction/voltage protocol with subsequent increased suction leading to the whole-cell configuration. The currents recorded were acquired at 1 KHz and filtered at 0.3 KHz using a Bessel filter. Whole-cell currents were measured at a holding potential of −65 mV.
For QPatch recordings, the extracellular solution contained of (in mM): 145 NaCl, 4 KCl, 1 MgCl2, 2CaCl2, 10 HEPES, 10 D-glucose (pH 7.4), and the intracellular solution consisted of (in mM): 96 KCl, 28 CsCl, 25 KOH, 4.3 CaCl2), 1.4 MgCl2, 10 EGTA, HEPES, 3 MgATP (pH 7.2). The osmolarities of the extracellular and intracellular solutions were 305 and 295 mOsm respectively.
The effects of modulators were evaluated in the presence of a submaximal GABA concentration, giving typically 10-20% activation (GABA EC10-20) of the response elicited by a saturating GABA concentration. For QPatch recordings, to check and ensure baseline current stability before compound addition, five consecutive applications of GABA EC10-20 alone (each application with a 2 s duration, separated by minimum 1 min wash off periods) were performed before compound addition. The test compound was applied using the pipetting system of the QPatch system 1 min at least prior to co-application with GABA EC10-20. For SyncroPatch recordings, GABA EC20 alone was applied three times (1 s long applications, with wash steps in-between) before compound addition. This was followed by a 1-2 min pre-incubation with the test compound and then re-application of GABA EC10-20 in the presence of the compound. Finally, following a further wash step, a saturating concentration of GABA was applied, allowing the accurate evaluation for each cell of the percentage baseline activation elicited by the submaximal GABA applied.
The compounds were first dissolved in DMSO as a 10 mM stock and then further diluted to the testing concentrations so that the final DMSO concentration in the extracellular recording solution was kept constant at 0.1% for the QPatch recordings, or 0.2% for the SyncroPatch recordings.
The % efficacy of modulators was determined from the GABA elicited currents recorded in the presence and absence of the test compound, using the formula:
[((compound peak current−leak)−(GABA peak current−leak))/(GABA peak current−leak)]*100,
where ‘leak’ is the leak baseline current at −65 mV, ‘compound peak current’ is the current elicited by co-application of compound and GABA, and ‘GABA peak current’ is the current elicited by GABA alone during the 5th GABA application. The results were presented as ‘relative efficacy’ for each compound generally at a concentration equal or higher than 100 times their determined Ki. […]

Assay [2] concerns the target T2, human recombinant GABAAR containing α5β3γ2 subunits (benzodiazepine site) (Homo sapiens, UniProt P18507+P31644).
T2 construct: expressed in transfected cells; host or cells: mouse L(tk−) cells, dexamethasone-inducible vector pMSGneo
As to the kind of experiment: In vitro radioligand binding assay (α5-GABAAR Ki). The conditions noted are these: inhibition of [3H]Ro15-1788 binding, membranes of L(tk−) cells expressing human α5β3γ2; read-out: α5-GABAAR Ki.
Source text: as §1
L(tk^−) cells stably expressing human α1β3γ2, α2β3γ2, α3β3γ2, α5β3γ2 GABAARs were maintained in DMEM F12 medium supplemented with 10% Foetal Bovine Serum, 1% Penicillin/Streptomycin and 1 mg/mL Geneticin G418 in an incubator at 37° C. with a humidified atmosphere with 5% CO2.
The affinity (Ki) of compounds for the benzodiazepine site of human recombinant GABAARs was measured by their ability to inhibit the binding of the selective benzodiazepine antagonist [^3H] Ro15-1788 ([^3H] flumazenil).
L(tk^−) cells expressing human recombinant GABAAR containing α1β3γ2, α2β3γ2, α3β3γ2, α5β3γ2 subunits were harvested and membranes were prepared for each receptor combination in phosphate buffer (K2PO4 10 mM, pH 7.0) (Hadingham et al. (1992) Proc. Natl. Acad. Sci. USA; 89 (14): 6378-82). Protein concentration, receptor expression and the Kd of [^3H] Ro15-1788 were determined before Ki values of compounds were evaluated. For Kd evaluation, saturation binding curves were obtained by incubating membrane with various concentrations of [^3H] Ro15-1788 (82.5 Ci/mM), with nonspecific binding measured in the presence of 1 μM TP003.
For Ki evaluation, cell membranes were incubated with 4 nM [^3H] Ro15-1788 along with a range of concentrations of test compound. Nonspecific binding was determined using 1 μM TP003. All incubations were performed for 1 hour at 4° C. in assay buffer. The total assay volume was 0.5 mL, containing 100 μg membrane protein/well α1β3γ2, α2β3γ2, α3β3γ2 and 50 μg membrane protein/well for α53γ2. Incubations were terminated by filtration and washing with ice cold Tris-HCl buffer (50 mM, pH=7.4) over Whatman GF/B filters and the radioactivity of the filters was measured using liquid scintillation counting.
The % inhibition of [^3H] Ro15-1788 binding was plotted as a function of compound concentration and the IC50 calculated. From the IC50, the affinity (Ki) was calculated using the method of Cheng and Prusoff using the Kd values obtained for [^3H] Ro15-1788.

T2 sequence (P31644 32-462): as the sequence (P31644 32-462) above
T2 sequence (P28472 26-473 partner): as the sequence (P28472 26-473 partner) above
T2 sequence (P18507 40-475): as the sequence (P18507 40-475) above

As to `CCc1c(C(=O)OC)ncc2[nH]c3cc(OC)c(OC)cc3c12` [DMCM, methyl-6,7-dimethoxy-4-ethyl-beta-carboline-3-carboxylate, reference compound], the “attenuation of GABA-induced currents (efficacy)” value in assay [1] (n=5, reference for normalising relative efficacy) is recorded as −57±4%.
Turning to `COc1cc(-n2ccnc2)ccc1NC(=O)c1c(-c2ccccc2)noc1C` [Example 2, N-(4-Imidazol-1-yl-2-methoxy-phenyl)-5-methyl-3-phenyl-isoxazole-4-carboxamide], the “α5-GABAAR Relative Efficacy (to DMCM), Qpatch” value in assay [1] is listed as −0.54. In addition, the Ki (as a rule, the equilibrium dissociation constant of an inhibitor or competing ligand from its target) in assay [2] came out at 2.4 nM.
The corresponding values for `COc1nc(-n2ccnc2)ncc1NC(=O)c1c(-c2ccccc2)noc1C` [Example 3, N-(2-Imidazol-1-yl-4-methoxy-pyrimidin-5-yl)-5-methyl-3-phenyl-isoxazole-4-carboxamide] are −0.69 and 32.8 nM.
For the molecule `COc1cc(-n2ccnc2)ccc1NC(=O)c1c(C)nnn1-c1ccccc1` [Example 5, N-(4-(1H-Imidazol-1-yl)-2-methoxyphenyl)-4-methyl-1-phenyl-1H-1,2,3-triazole-5-carboxamide], the “α5-GABAAR Relative Efficacy (to DMCM), Qpatch” value in assay [1] was −0.82. For the same molecule, the Ki in assay [2] turned out to be 50.7 nM.
For `COc1nc(-c2nnc3n2CCN(C)C3)ccc1NC(=O)c1c(-c2ccccc2)noc1C` [Example 195, N-(2-Methoxy-6-(7-methyl-5,6,7,8-tetrahydro-[1,2,4]triazolo[4,3-a]pyrazin-3-yl)pyridin-3-yl)-5-methyl-3-phenylisoxazole-4-carboxamide], the Ki in assay [2] worked out at 23.5 nM.
On the same count and under the same terms, as for `COc1cc(-c2cnc(N)nc2)ccc1NC(=O)c1c(-c2ccccc2)noc1C` [Example 197, N-[4-(2-Aminopyrimidin-5-yl)-2-methoxy-phenyl]-5-methyl-3-phenyl-isoxazole-4-carboxamide hydrochloride], the figure is 0.4 nM; as for `COc1cc(-c2cnc(N)cn2)ccc1NC(=O)c1c(-c2ccccc2)noc1C` [Example 198, N-[4-(5-Aminopyrazin-2-yl)-2-methoxy-phenyl]-5-methyl-3-phenyl-isoxazole-4-carboxamide hydrochloride], 4.3 nM; as for `COc1nc(-c2cnc(C(C)(C)O)nc2)ccc1NC(=O)c1c(-c2ccccc2)noc1C` [Example 201, N-[6-[2-(1-Hydroxy-1-methyl-ethyl)pyrimidin-5-yl]-2-methoxy-3-pyridyl]-5-methyl-3-phenyl-isoxazole-4-carboxamide], 35.4 nM.
Same read-out and setting: under `COc1nc(-c2cnc(CN)nc2)ccc1NC(=O)c1c(-c2ccccn2)nnn1C` [Example 202, N-(6-(2-(Aminomethyl)pyrimidin-5-yl)-2-methoxypyridin-3-yl)-1-methyl-4-(pyridin-2-yl)-1H-1,2,3-triazole-5-carboxamide hydrochloride] stands 77.8 nM; under `COc1nc(-c2cnc(CN)nc2)ccc1NC(=O)c1c(-c2ccc(Cl)cn2)nnn1C` [Example 203, N-(6-(2-(Aminomethyl)pyrimidine-5-yl)-2-methoxypyridin-3-yl)-4-(5-chloropyridin-2-yl)-1-methyl-1H-1,2,3-triazole-5-carboxamide hydrochloride], 17 nM; under `COc1nc(-c2cnoc2)ccc1NC(=O)c1c(-c2ccc(F)cc2)noc1N1CCC1` [Example 210, 5-(Azetidin-1-yl)-3-(4-fluorophenyl)-N-(6-isoxazol-4-yl-2-methoxy-3-pyridyl) isoxazole-4-carboxamide], 13.7 nM.
On the same count and under the same terms, under `COc1nc(-c2cnc(CN)nc2)ccc1NC(=O)c1c(-c2ccc(F)cc2)noc1NCCCCl` [Example 211, N-[6-[2-(Aminomethyl)pyrimidin-5-yl]-2-methoxy-3-pyridyl]-5-(3-chloropropylamino)-3-(4-fluorophenyl) isoxazole-4-carboxamide hydrochloride] stands 1.3 nM.
On to `Cc1onc(-c2ccccc2)c1C(=O)Nc1ccc(-n2ccnc2)[nH]c1=O` [Example 212, N-(6-Imidazol-1-yl-2-oxo-1H-pyridin-3-yl)-5-methyl-3-phenyl-isoxazole-4-carboxamide], for which the Ki in assay [2] stood at 313 nM.
`COc1nc(-c2ccc(C=O)cc2)ccc1NC(=O)c1c(-c2ccccc2)noc1C` [Example 220, N-[6-(4-formylphenyl)-2-methoxy-3-pyridyl]-5-methyl-3-phenyl-isoxazole-4-carboxamide]: in assay [2], the inhibitory constant (Ki) was determined as 3.4 nM.
Same read-out and setting: as for `COc1nc(-c2ccc(CCl)cc2)ccc1NC(=O)c1c(-c2ccccc2)noc1C` [Example 224, N-[6-[4-(chloromethyl)phenyl]-2-methoxy-3-pyridyl]-5-methyl-3-phenyl-isoxazole-4-carboxamide], the figure is 220 nM; as for `COc1nc(-c2ccc(CN3CCOCC3)cc2)ccc1NC(=O)c1c(-c2ccccc2)noc1C` [Example 225, N-[2-methoxy-6-[4-(morpholinomethyl)phenyl]-3-pyridyl]-5-methyl-3-phenyl-isoxazole-4-carboxamide], 7.7 nM; as for `COc1nc(-c2ccc(CN3CC4(COC4)C3)cc2)ccc1NC(=O)c1c(-c2ccccc2)noc1C` [Example 226, N-[2-methoxy-6-[4-(2-oxa-6-azaspiro[3.3]heptan-6-ylmethyl)phenyl]-3-pyridyl]-5-methyl-3-phenyl-isoxazole-4-carboxamide], 3.3 nM.
Regarding `Cc1onc(-c2ccccc2)c1C(=O)Nc1ccc(-c2cnoc2)nc1OC(C)C` [Example 227, N-(2-isopropoxy-6-(isoxazol-4-yl)pyridin-3-yl)-5-methyl-3-phenyl-isoxazole-4-carboxamide], in assay [2], the Ki was 0.5 nM.
Same read-out and setting: as for `COc1nc(-c2ccc(CN3CC4COCC4C3)cc2)ccc1NC(=O)c1c(-c2ccccc2)noc1C` (stereo not shown) [Example 233, N-(2-methoxy-6-(4-((tetrahydro-1H-furo[3,4-c]pyrrol-5 (3H)-yl)methyl)phenyl)pyridin-3-yl)-5-methyl-3-phenylisoxazole-4-carboxamide], the figure is 7 nM.
